{"source": "patent US20080262080A1", "about": "“Allergy Suppressive Agent” (KYUSHU UNIVERSITY, NATIONAL UNIVERSITY CORPORATION, priority 2004, published 2008)", "key": {"STAT6": {"test_system": "STAT6", "assay": "Chrysin intake test: STAT6 phosphorylation in spleen lymphocytes of orally dosed mice", "type": "in vivo, mouse", "description": "Spleen lymphocytes collected from mice, to which chrysin had been orally administered continuously, were stimulated with LPS or LPS+IL-4 (500 U/ml) and phosphorylated STAT6 was detected by immunoprecipitation using anti-STAT6 antibody and immunoblotting. 200 μL portions of 0.4 mg/mL chrysin and 200 μL portions of 1% DMSO in 1% EtOH were administered respectively to groups (n=8) in accordance with the following administration schedule. To male C57BL/6N mice aged 5 weeks that had been preliminarily fed (MF feed) for 1 week, the samples were administered once every 2 days for 2 weeks (7 times in total; total dose: 0.56 mg (28 mg/kg) per animal). After sacrificing, spleen lymphocytes were collected from the spleen of each mouse, adjusted to a density of 2×10^7 cells/mL and stimulated with 25 μg/mL of lipopolysaccharide (LPS) or LPS+IL-4 (500 U/mL) for 30 min. Then, the cells were lysed and phosphorylated STAT6 was detected by immunoprecipitation with the use of anti-STAT6 antibody and immunoblotting to thereby examine the response to IL-4."}, "blood cytokine levels": {"test_system": "blood cytokine levels", "assay": "Blood cytokine levels of OVA-sensitized mice after chrysin intake (Mouse Cytokine Array)", "type": "in vivo", "from_the_text": "Blood was collected as in Example 6 and 32 kinds of cytokines (6 Ckine, CTACK, Eotaxin, G-CSF, GM-CSF, IL-2, IL-3, Il-4, IL-5, Il-6, IL-9, IL-10, IL-12, IL-12p70, IL-13, IL-17, IFN-γ, KC, Leptin, MCP-1, MCP-5, MIP-1α, MIP-2, MIP-3β, RANTES, SCF, sTNFRI, TARC, TIMP-1, TNF-α, Tpo and VEGF) were detected using Ray Bio™ Mouse Cytokine Array (Ray Biotech, Inc.)."}, "[1]": {"test_system": "FcεRI α- and γ-chains mRNA", "assay": "mRNA transcription level of FcεRI α- and γ-chains in KU812 cells (RT-PCR, Southern hybridization)", "type": "cell-based, human", "conditions": "serum-free, G3PDH control", "description": "The mRNA expression of each of the FcεRI α- and γ-chains was detected by RT-PCR and southern hybridization using specific probes. G3PDH (glyceraldehyde-3-phosphate dehydrogenase) was employed as a control.\nKU812 cells (1×10^6 cells/mL) were incubated under serum-free conditions in RPMI 1640 medium to which chrysin had been added. After incubating, the cells were washed with PBS once and then completely lysed by adding 1 mL of Trizol (Invitrogen) per 1×10^7 cells and quickly suspending. After allowing to stand at room temperature for 5 min, 0.2 mL of chloroform was added and the mixture was vigorously stirred and overturned. […] The concentration of the total RNA diluted 50-fold with water was measured using a wavelength of 260 nm. […]\nThe PCR mixture was prepared by mixing 1 μL of the cDNA, 0.8 μL of 2 mM dNTP, 0.6 μL of MgCl2, 0.5 μL of […] sense primer, 0.5 μL of 20 μM antisense primer, 0.1 μL of Taq DNA polymerase (Fermentas) and 1 μL of 10× Taq buffer accompanying Taq DNA polymerase and adjusting the total volume to 10 μL with distilled water. […] Next, amplification was conducted in 13 to 15 cycles (each cycle consisting of 1 min at 95° C., 1 min at 60° C. and 1 min at 72° C. The PCR product was electrophoresed on a 1% agarose gel and the amplified DNA was detected by Southern blotting. […]"}}}
{"smiles": "O=c1cc(-c2ccccc2)oc2cc(O)cc(O)c12", "note": "[Chrysin, 5,7-dihydroxyflavone]", "values": [{"measurement": "phosphorylation of STAT6 by the stimulus with LPS+IL-4", "setting": "STAT6; C57BL/6N mice, oral chrysin once every 2 days for 2 weeks, total 28 mg/kg, spleen lymphocytes, LPS+IL-4 (500 U/mL) 30 min, vs control system", "result": "suppressed"}, {"measurement": "oral dose at which chrysin is efficacious as an antiallergic agent", "setting": "STAT6; male adults having an average body weight of 60 kg (28 mg/kg)", "result": "≥ 1.68", "unit": "g/day"}, {"measurement": "IL-4 level after taking chrysin", "setting": "blood cytokine levels; in words", "result": "lower than the detection limit"}, {"measurement": "blood levels of G-CSF, GM-CSF, leptin and TNF-α", "setting": "blood cytokine levels; in words", "result": "tendency toward increase"}, {"measurement": "cytokine levels of 26 of the 32 kinds of cytokines", "setting": "blood cytokine levels; in words", "result": "no change"}, {"measurement": "G-CSF blood level, relative value", "setting": "blood cytokine levels; non-intake group = 1", "result": 2.43}, {"measurement": "GM-CSF blood level, relative value", "setting": "blood cytokine levels; non-intake group = 1", "result": 1.68}, {"measurement": "IL-4 blood level, relative value", "setting": "blood cytokine levels; non-intake group = 1", "result": 0}, {"measurement": "Leptin blood level, relative value", "setting": "blood cytokine levels; non-intake group = 1", "result": 1.25}, {"measurement": "MCP-1 blood level, relative value", "setting": "blood cytokine levels; non-intake group = 1", "result": 0.49}, {"measurement": "TNF-α blood level, relative value", "setting": "blood cytokine levels; non-intake group = 1", "result": 2.17}, {"measurement": "expression of FcεRI at the mRNA level", "setting": "[1]", "result": "suppressed"}]}
